Data from patent publication US20150268223A1, “MICR[…]-CULTURE SYSTEMS AS INFECTIOUS DISEASE ANALYSIS PLATFORMS” (Massachusetts Institute of Technology, priority 2008, published 2015).

Test system: retroviral pseudoparticles bearing the E1/E2 glycoproteins of the Hepatitis C virus (HCV) genotype 1a strain (H77)
Format: cell-based

O=C(O)CN(CCN(CC(=O)O)CC(=O)O)CC(=O)O [EDTA]
access of micropatterned co-cultures to viral pseudoparticles and virus: dramatically improves access
